Experimental findings from the NIST ThermoML archive (doi:10.1016/j.tca.2016.03.009) are described below.

The conditions of data set [1]: DSC. (In general: In DSC, transitions show as peaks or steps in heat flow.)
Data set [2] in a line: Molar enthalpy of transition or fusion. Conditions: DSC.

Numbers after ± are expanded uncertainties.

For `CCCCOc1cc2c3cc(OCCCC)c(OCCCC)cc3c3cc(OCCCC)c(OCCCC)cc3c2cc1OCCCC` [2,3,6,7,10,11-hexabutoxytriphenylene], the figures for the Triple point temperature in data set [1] (Crystal) and in data set [1] (Liquid crystal of unknown type) were 360.35 ± 1 K and 417.95 ± 1 K, respectively. Besides, the results for the “Molar enthalpy of transition or fusion” value in data set [2] (Crystal) and in data set [2] (Liquid crystal of unknown type) were 5.4 ± 0.174 kcal/mol and 4.47 ± 0.141 kcal/mol, respectively.
